The results in this text go back to patent US20220202783A1, “Use Of ADAM9 Inhibitor As Immunomodulator” (China Medical University, priority 2019, published 2022).

Common to all, as to type: cell-based
What all share (design): key to effect of inhibiting tumor cell growth: “+” represents that the compound has the effect of inhibiting tumor cell growth

The test system of series [1] is kidney cancer cells (293). The series can be described thus: cytotoxicity assay in 293 cells. Particulars: Homo sapiens, HEK293.
The nature of series [2]: cytotoxicity assay in 293 cells. Particulars: 293.
Series [3] concerns lung cancer cells (Bm7brmx2). In words: cytotoxicity assay in Bm7brmx2 cells. The protocol: (§1) Please refer to FIG. 1A, FIG. 1B and Table 2, which show the analysis results of the compound of Formula (I) inhibiting ADAM9 activity. In FIG. 1A, Bm7 lung cancer cells were treated with the derivatives of the compound 6X-0310, and then cultured under anchorage-free culture condition. The expressions of ADAM9 and CDCP1 in Bm7 lung cancer cells were detected by Western blot, in which EF1α is an internal control, and mock represents Bm7 lung cancer cells without treatment. […] In the experiment, the compounds of Formula (I) of Example 1 to Example 32 were further performed cytotoxicity assay to measure the IC50 value of the compounds of Formula (I) of the present disclosure in lung cancer cell lines.

Series [4] has as its system lung cancer cells (Bm7brmx2-1st). The series can be described thus: cytotoxicity assay in Bm7brmx2-1st cells. Here is the method: as §1
Series [5] has as its system lung cancer cells (Bm7brmx2-2nd). The series can be described thus: cytotoxicity assay in Bm7brmx2-2nd cells. The protocol:
as §1

A short description of series [6]: cytotoxicity assay in HNOF cells. To be noted: human, HNOF cells.
Series [7] concerns HNOF. In words: cytotoxicity assay in HNOF cells. Particulars: HNOF.
Series [8] concerns lung cancer cells (TC1). In words: cytotoxicity assay in TC1 cells. To be noted: for IC50: TC-1. The protocol: as §1
Series [9] relates to lung cancer cells (H1299). In words: cytotoxicity assay in H1299 cells. To be noted: for effect of inhibiting tumor cell growth: H1299; for IC50: Homo sapiens, NCI-H1299. Here is the method: as §1
In series [10] the test system is lung cancer cells (A549). The series can be described thus: cytotoxicity assay in A549 cells. Particulars: for IC50: Homo sapiens. Here is the method: as §1

As for `COc1ccc(C(=O)Nc2nc(CCN3C(=O)c4ccccc4C3=O)cs2)cc1OC` [5X-0314], the IC50 (usually the midpoint of a concentration-inhibition curve) in [1] amounted to 49.3 µM; in [3], 66.5 µM; in series [4], 51 µM; in series [5], 90.6 µM; in series [6] it was 85.7 µM; in [8], 202 µM. The IC50 in series [9] was found to be 116 µM; in [10] it was 184 µM. Further, the “effect of inhibiting tumor cell growth” value in [2], in series [3], in series [4], in [5], in series [7] and in [8] was “+” in each case. Besides, the “effect of inhibiting tumor cell growth” value in series [9] and in series [10] was “+” throughout.

With `O=C(Nc1nc(CCN2C(=O)c3ccccc3C2=O)cs1)c1ccc([N+](=O)[O-])cc1` [6X-0202], the 50% inhibitory concentration (IC50) in [1] was 47.6 µM; in [3], above 125 µM; in series [4], 68.6 µM; in [5], 1270 µM; in [6], 78.3 µM; in [8], 125 µM. The IC50 amounted to 335 µM in [9] and 766 µM in series [10]. The “effect of inhibiting tumor cell growth” value in [2], in series [3], in series [4], in series [5], in series [7] and in [8] was “+” in each case. The “effect of inhibiting tumor cell growth” value in series [9] and in series [10] was “+” in each case.

Take `N#C/C(=C/c1cc([N+](=O)O)ccc1Sc1ccccn1)c1nc(CCN2C(=O)c3ccccc3C2=O)cs1` [6X-0229]: the IC50 is 133 µM in [1]; 374 µM in series [3]; 56.2 µM in series [4]; 113 µM in series [5]; 145 µM in [6]; 167 µM in series [8]. Further, the IC50 in [9] was found to be 171 µM; in [10] it was 109 µM. Moreover, the “effect of inhibiting tumor cell growth” value in series [2], in series [3], in [4], in series [5], in series [7] and in series [8] was “+” in each case. The “effect of inhibiting tumor cell growth” value in series [9] and in series [10] was “+” throughout.

In the case of `N#C/C(=C\c1cccc2ccccc12)c1nc(CCN2C(=O)c3ccccc3C2=O)cs1` [6X-0309], the IC50 in series [1] is 82.2 µM; in series [3], 89.8 µM; in series [4], 628 µM; in series [5] it was 385 µM; in series [6] it was 114 µM; in [8], 89.4 µM. Moreover, the IC50 in series [9] is 93.8 µM; in series [10] it was above 125 µM. For the same molecule, the “effect of inhibiting tumor cell growth” value in series [2], in series [3], in series [4], in [5], in series [7] and in [8] was “+” throughout. Further, the “effect of inhibiting tumor cell growth” value in [9] and in series [10] was “+” each time.

For the molecule `N#C/C(=C\C=C\c1ccccc1)c1nc(CCN2C(=O)c3ccccc3C2=O)cs1` [6X-0311], the IC50 in [1] is 231 µM; in series [3], above 125 µM; in series [4], above 50 µM; in series [5], 590 µM; in series [6] it was 411 µM; in series [8], above 125 µM. Also, the IC50 amounted to 505 µM in series [9] and 211 µM in series [10]. The “effect of inhibiting tumor cell growth” value in [2], in series [3], in [4], in series [5], in [7] and in series [8] was “+” in each case. The “effect of inhibiting tumor cell growth” value in [9] and in series [10] was “+” throughout.

Take `O=C1c2ccccc2C(=O)N1CCc1csc(-c2ccccc2)n1` [11W-0296]: the IC50 in series [1] amounted to 62.6 µM; in [3], 1260 µM; in [4] it was 175 µM; in series [5], 147 µM; in series [6], 92 µM; in series [8], 259 µM. The half-maximal inhibitory concentration (IC50) in series [9] worked out at 234 µM; in series [10], 421 µM. Moreover, the “effect of inhibiting tumor cell growth” value in [2], in series [3], in series [4], in series [5], in [7] and in [8] was “+” in each case. In addition, the “effect of inhibiting tumor cell growth” value in series [9] and in series [10] was “+” each time.

For `O=C1c2ccccc2C(=O)N1CCc1csc(COc2cccc(C(F)(F)F)c2)n1` [12W-0232], the IC50 is 73.6 µM in series [1]; 138 µM in [3]; above 50 µM in series [4]; 77.7 µM in [5]; 103 µM in series [6]; 99.2 µM in [8]. In addition, the half-inhibitory concentration (IC50) in [9] stood at 119 µM; in [10] it was 184 µM. In addition, the “effect of inhibiting tumor cell growth” value in series [2], in [3], in series [4], in series [5], in series [7] and in series [8] was “+” throughout. Moreover, the “effect of inhibiting tumor cell growth” value in [9] and in series [10] was “+” in each case.

Regarding `O=C1c2ccccc2C(=O)N1CCc1csc(-c2ccccn2)n1` [12W-0266], the IC50 in series [1] came out at 122 µM; in [3], 429 µM; in series [4], 88.8 µM; in series [5], 134 µM; in series [6], 184 µM; in series [8] it was 169 µM. The results for the IC50 in series [9] and in [10] were 253 µM and 190 µM, respectively. Further, the “effect of inhibiting tumor cell growth” value in [2], in series [3], in [4], in series [5], in series [7] and in [8] was “+” in each case. Moreover, the “effect of inhibiting tumor cell growth” value in series [9] and in [10] was “+” throughout.

Consider `O=C1c2ccccc2C(=O)N1CCc1csc(-c2ccc(F)cc2)n1` [12W-0272], for which the half-inhibitory concentration (IC50) was found to be 134 µM in series [1]; 391 µM in series [3]; 130 µM in series [4]; 264 µM in series [5]; 600 µM in series [6]; 823 µM in series [8]. For the same molecule, the figures for the IC50 in series [9] and in [10] were 845 µM and 177 µM, respectively. The “effect of inhibiting tumor cell growth” value in series [2], in series [3], in series [4], in series [5], in [7] and in series [8] was “+” in each case. In addition, the “effect of inhibiting tumor cell growth” value in series [9] and in series [10] was “+” throughout.
